Data reported in patent publication EP0377642B1, “HERBICIDES FOR WEED CONTROL IN RICE” (E.I. DU PONT DE NEMOURS AND COMPANY, priority 1987, dated 1989).

Tests used:
[1] = system: PS; test: Herbicidal efficacy in relation to application timing in Indonesia (Table 5); assay type: in vivo
Excerpt: (§1) Methyl 2-[[[[(4-methoxy-6-methyl-1,3,5-triazin-2-yl)amino]carbonyl]amino]sulfonyl]benzoate (Compound 1) and mixtures thereof with other compounds were applied as a spray (using a hand sprayer) to rice (either transplanted or direct seeded) in several rice growing areas in Southeast Asia and in the U.S. Tables 1-28 contain the results of these tests and clearly exemplify the utility of this invention. The details of each application are included in the appropriate table. [drawing 2]

[2] = system: MV; test: as above; assay type: in vivo
Excerpt: as §1

COC(=O)c1ccccc1S(=O)(=O)NC(=O)Nc1nc(C)nc(OC)n1 [Compound 1, Methyl 2-[[[[(4-methoxy-6-methyl-1,3,5-triazin-2-yl)amino]carbonyl]amino]sulfonyl]benzoate]
% CONTROL PS ([1]; 4 WAT, 4 GAI/HA, evaluation 2): 0%
% CONTROL PS ([1]; 4 WAT, 4 GAI/HA, evaluation 3): 0%
% CONTROL PS ([1]; 4 WAT, 6 GAI/HA, evaluation 1): 0%
% CONTROL PS ([1]; 4 WAT, 6 GAI/HA, evaluation 2): 0%
% CONTROL PS ([1]; 4 WAT, 6 GAI/HA, evaluation 3): 0%
% CONTROL PS ([1]; 4 WAT, 8 GAI/HA, evaluation 1): 0%
% CONTROL PS ([1]; 4 WAT, 8 GAI/HA, evaluation 2): 0%
% CONTROL PS ([1]; 4 WAT, 8 GAI/HA, evaluation 3): 0%
% CONTROL PS ([1]; 5 WAT, 2 GAI/HA, evaluation 1): 0%
% CONTROL PS ([1]; 5 WAT, 2 GAI/HA, evaluation 2): 0%
% CONTROL PS ([1]; 5 WAT, 2 GAI/HA, evaluation 3): 0%
% CONTROL PS ([1]; 5 WAT, 3 GAI/HA, evaluation 1): 0%
% CONTROL PS ([1]; 5 WAT, 3 GAI/HA, evaluation 2): 0%
% CONTROL PS ([1]; 5 WAT, 3 GAI/HA, evaluation 3): 0%
% CONTROL PS ([1]; 5 WAT, 4 GAI/HA, evaluation 1): 0%
% CONTROL PS ([1]; 5 WAT, 4 GAI/HA, evaluation 2): 0%
% CONTROL PS ([1]; 5 WAT, 4 GAI/HA, evaluation 3): 0%
% CONTROL PS ([1]; 5 WAT, 6 GAI/HA, evaluation 1): 0%
% CONTROL PS ([1]; 5 WAT, 6 GAI/HA, evaluation 2): 0%
% CONTROL PS ([1]; 5 WAT, 6 GAI/HA, evaluation 3): 0%
% CONTROL PS ([1]; 5 WAT, 8 GAI/HA, evaluation 1): 0%
% CONTROL PS ([1]; 5 WAT, 8 GAI/HA, evaluation 2): 0%
% CONTROL PS ([1]; 5 WAT, 8 GAI/HA, evaluation 3): 0%
% CONTROL MV ([2]; 3 WAT, 2 GAI/HA, evaluation 1): 80%
% CONTROL MV ([2]; 3 WAT, 2 GAI/HA, evaluation 2): 80%
% CONTROL MV ([2]; 3 WAT, 2 GAI/HA, evaluation 3): 100%
% CONTROL MV ([2]; 3 WAT, 3 GAI/HA, evaluation 1): 80%
% CONTROL MV ([2]; 3 WAT, 3 GAI/HA, evaluation 2): 100%
% CONTROL MV ([2]; 3 WAT, 3 GAI/HA, evaluation 3): 100%
% CONTROL MV ([2]; 3 WAT, 4 GAI/HA, evaluation 1): 100%
% CONTROL MV ([2]; 3 WAT, 4 GAI/HA, evaluation 2): 100%
% CONTROL MV ([2]; 3 WAT, 4 GAI/HA, evaluation 3): 100%
% CONTROL MV ([2]; 3 WAT, 6 GAI/HA, evaluation 1): 80%
% CONTROL MV ([2]; 3 WAT, 6 GAI/HA, evaluation 2): 100%
% CONTROL MV ([2]; 3 WAT, 6 GAI/HA, evaluation 3): 100%
% CONTROL MV ([2]; 3 WAT, 8 GAI/HA, evaluation 1): 100%
% CONTROL MV ([2]; 3 WAT, 8 GAI/HA, evaluation 2): 100%
% CONTROL MV ([2]; 3 WAT, 8 GAI/HA, evaluation 3): 100%
% CONTROL MV ([2]; 4 WAT, 2 GAI/HA, evaluation 1): 80%
% CONTROL MV ([2]; 4 WAT, 2 GAI/HA, evaluation 2): 100%
% CONTROL MV ([2]; 4 WAT, 2 GAI/HA, evaluation 3): 100%
% CONTROL MV ([2]; 4 WAT, 3 GAI/HA, evaluation 1): 80%
% CONTROL MV ([2]; 4 WAT, 3 GAI/HA, evaluation 2): 100%
% CONTROL MV ([2]; 4 WAT, 3 GAI/HA, evaluation 3): 100%
% CONTROL MV ([2]; 4 WAT, 4 GAI/HA, evaluation 1): 80%
% CONTROL MV ([2]; 4 WAT, 4 GAI/HA, evaluation 2): 100%
% CONTROL MV ([2]; 4 WAT, 4 GAI/HA, evaluation 3): 100%
% CONTROL MV ([2]; 4 WAT, 6 GAI/HA, evaluation 1): 80%
% CONTROL MV ([2]; 4 WAT, 6 GAI/HA, evaluation 2): 100%
% CONTROL MV ([2]; 4 WAT, 6 GAI/HA, evaluation 3): 100%
% CONTROL MV ([2]; 4 WAT, 8 GAI/HA, evaluation 1): 100%
% CONTROL MV ([2]; 4 WAT, 8 GAI/HA, evaluation 2): 100%
% CONTROL MV ([2]; 4 WAT, 8 GAI/HA, evaluation 3): 100%
% CONTROL MV ([2]; 5 WAT, 2 GAI/HA, evaluation 1): 80%
% CONTROL MV ([2]; 5 WAT, 2 GAI/HA, evaluation 2): 80%
% CONTROL MV ([2]; 5 WAT, 2 GAI/HA, evaluation 3): 80%
% CONTROL MV ([2]; 5 WAT, 3 GAI/HA, evaluation 1): 80%
% CONTROL MV ([2]; 5 WAT, 3 GAI/HA, evaluation 2): 100%
% CONTROL MV ([2]; 5 WAT, 3 GAI/HA, evaluation 3): 100%
% CONTROL MV ([2]; 5 WAT, 4 GAI/HA, evaluation 1): 80%
% CONTROL MV ([2]; 5 WAT, 4 GAI/HA, evaluation 2): 100%
% CONTROL MV ([2]; 5 WAT, 4 GAI/HA, evaluation 3): 100%
% CONTROL MV ([2]; 5 WAT, 6 GAI/HA, evaluation 1): 80%
% CONTROL MV ([2]; 5 WAT, 6 GAI/HA, evaluation 2): 100%
% CONTROL MV ([2]; 5 WAT, 6 GAI/HA, evaluation 3): 100%
% CONTROL MV ([2]; 5 WAT, 8 GAI/HA, evaluation 1): 100%
% CONTROL MV ([2]; 5 WAT, 8 GAI/HA, evaluation 2): 100%
% CONTROL MV ([2]; 5 WAT, 8 GAI/HA, evaluation 3): 100%
